Measurements from patent US11648289B2, “Antibacterial method” (priority 2016, dated 2023).
≈ marks a conversion by molar mass, not a printed value. Where two headings read alike, the source gives them in different places. No end group written: not given here.

Key:
KAVA = assay: MIC microtitre plate assay, pathogenic isolates; format: cell-based
Procedure: The tested strains were obtained from the LMG collection. […] NisinZ and micrococcin P1 were purified from source. […] Garvicin KS is made up of 3 peptides:
(§1) Bacteriocin activity was determined using a microtitre plate assay. The plates were incubated at 30° C. for 8 h and the growth was measured spectrophotometrically at 600 nm (A600) with 15 min intervals using SPECTROstarNano (BMG LABTECH, Germany).

Sa3323 = assay: microbe, parasite or virus in culture
Procedure: (§2) All the strains (see below) used in minimal inhibitory concentration (MIC) assays (Ovchinnikov et al., 2017, Front Microbiol., 8, p774, doi:10.3389/fmicb.2017.00774) were grown in BHI medium (Oxoid) at 30° C. without shaking. The tested strains were obtained from the LMG collection. […] NisinZ and micrococcin P1 were purified from source. Synthesized peptides were solubilized to concentrations of 10.0-0.1 mg/ml in 0.1% (vol/vol) trifluoroacetic acid and stored at −20° C. until use. Garvicin KS is made up of 3 peptides:
as §1, with “Germany). The MIC was defined as the bacteriocin concentration that inhibited the growth of the indicator strain by at least 50% in 200 μl culture (i.e., 50% of the turbidity of the control culture without bacteriocin).” for “Germany).”

Sa 3242 = assay: microbe, parasite or virus in culture
Procedure: as §2
as §1, with “Germany). The MIC was defined as the bacteriocin concentration that inhibited the growth of the indicator strain by at least 50% in 200 μl culture (i.e., 50% of the turbidity of the control culture without bacteriocin).” for “Germany).”

SH 4016 = assay: microbe, parasite or virus in culture
Procedure: as §2
as §1, with “Germany). The MIC was defined as the bacteriocin concentration that inhibited the growth of the indicator strain by at least 50% in 200 μl culture (i.e., 50% of the turbidity of the control culture without bacteriocin).” for “Germany).”

SH 4015 = assay: microbe, parasite or virus in culture
Procedure: as §2
as §1, with “Germany). The MIC was defined as the bacteriocin concentration that inhibited the growth of the indicator strain by at least 50% in 200 μl culture (i.e., 50% of the turbidity of the control culture without bacteriocin).” for “Germany).”

Sa 3328 = assay: microbe, parasite or virus in culture
Procedure: as §2
as §1, with “Germany). The MIC was defined as the bacteriocin concentration that inhibited the growth of the indicator strain by at least 50% in 200 μl culture (i.e., 50% of the turbidity of the control culture without bacteriocin).” for “Germany).”

Sa3324 = assay: microbe, parasite or virus in culture
Procedure: as §2
as §1, with “Germany). The MIC was defined as the bacteriocin concentration that inhibited the growth of the indicator strain by at least 50% in 200 μl culture (i.e., 50% of the turbidity of the control culture without bacteriocin).” for “Germany).”

Sa ATCC 33591 = assay: microbe, parasite or virus in culture
Procedure: as §2
as §1, with “Germany). The MIC was defined as the bacteriocin concentration that inhibited the growth of the indicator strain by at least 50% in 200 μl culture (i.e., 50% of the turbidity of the control culture without bacteriocin).” for “Germany).”

SP 4012 = assay: organism not typed
Procedure: as §2
as §1, with “Germany). The MIC was defined as the bacteriocin concentration that inhibited the growth of the indicator strain by at least 50% in 200 μl culture (i.e., 50% of the turbidity of the control culture without bacteriocin).” for “Germany).”

SP 4014 = assay: organism not typed
Procedure: as §2
as §1, with “Germany). The MIC was defined as the bacteriocin concentration that inhibited the growth of the indicator strain by at least 50% in 200 μl culture (i.e., 50% of the turbidity of the control culture without bacteriocin).” for “Germany).”

SP 4013 = assay: organism not typed
Procedure: as §2
as §1, with “Germany). The MIC was defined as the bacteriocin concentration that inhibited the growth of the indicator strain by at least 50% in 200 μl culture (i.e., 50% of the turbidity of the control culture without bacteriocin).” for “Germany).”

E. faecium (2) = test system: E. faecium (2)
Procedure: as §2
as §1, with “Germany). The MIC was defined as the bacteriocin concentration that inhibited the growth of the indicator strain by at least 50% in 200 μl culture (i.e., 50% of the turbidity of the control culture without bacteriocin).” for “Germany).”

Listeria spp. (3) = test system: Listeria spp. (3)
Procedure: as §2
as §1, with “Germany). The MIC was defined as the bacteriocin concentration that inhibited the growth of the indicator strain by at least 50% in 200 μl culture (i.e., 50% of the turbidity of the control culture without bacteriocin).” for “Germany).”

E. faecalis (2) = conditions: 2
Procedure: as §2
as §1, with “Germany). The MIC was defined as the bacteriocin concentration that inhibited the growth of the indicator strain by at least 50% in 200 μl culture (i.e., 50% of the turbidity of the control culture without bacteriocin).” for “Germany).”

E. hirae (4) = test system: E. hirae (4)
Procedure: as §2
as §1, with “Germany). The MIC was defined as the bacteriocin concentration that inhibited the growth of the indicator strain by at least 50% in 200 μl culture (i.e., 50% of the turbidity of the control culture without bacteriocin).” for “Germany).”

S. pseudointermedius (3) = test system: S. pseudointermedius (3)
Procedure: as §2
as §1, with “Germany). The MIC was defined as the bacteriocin concentration that inhibited the growth of the indicator strain by at least 50% in 200 μl culture (i.e., 50% of the turbidity of the control culture without bacteriocin).” for “Germany).”

[1] = test system: EntEJ97/EntK1 resistant mutants of E. faecalis and E. faecium; assay: Challenge of EntEJ97/EntK1 resistant mutants with non-related bacteriocins; format: cell-based; conditions: all HR and LR mutants, compared to WT
Excerpt: To analyze whether this active site is important for bacteriocin sensitivity, we changed the invariant residues in this motif —H18-E19-F20-G21-H22—one by one and altogether in the enterococcal RseP (invariant residues underlined) to alanine and then assessed for bacteriocin sensitivity.

Molecule: MIKKFPNPYTLAAKLTTYEINWYKQQYGRYPWERPVA [EntEJ97short]
- MIC (KAVA; KAVA): >50 µg/mL
- MIC (Sa3323): 3.1 to 6.25 µg/mL
- MIC (Sa 3242): 12.5 µg/mL
- MIC (SH 4016): 1.6 to 3.1 µg/mL
- MIC (SH 4015): 1.6 to 3.1 µg/mL
- MIC (Sa 3328): 3.1 µg/mL
- MIC (Sa3324): 6.25 µg/mL
- MIC (Sa ATCC 33591; ATCC 33591): >50 µg/mL
- MIC (SP 4012): 3.1 µg/mL
- MIC (SP 4014): 1.6 to 3.1 µg/mL
- MIC (SP 4013): 3.1 µg/mL
- MIC (E. faecium (2); 2): 12.5 to 25 µg/mL
- MIC (Listeria spp. (3)): >50 µg/mL
- MIC (E. faecalis (2)): 1.6 µg/mL
- MIC (E. hirae (4)): 0.1 to 0.4 µg/mL
- MIC (S. pseudointermedius (3)): 1.6 to 31 µg/mL

Molecule: C=C(NC(=O)[C@@H](NC(=O)[C@H](Cc1c[nH]cn1)NC(=O)[C@@H](NC(=O)[C@H](CO)NC(=O)[C@@H]1CS[C@@H](C)[C@H]2NC(=O)[C@H](C)NC(=O)[C@H](NC(=O)[C@H](CCCCN)NC(=O)[C@H](CCSC)NC(=O)[C@H](CC(N)=O)NC(=O)[C@@H]3CS[C@@H](C)[C@@H](NC(=O)[C@H](CCCCN)NC(=O)[C@@H]4CS[C@@H](C)[C@@H](NC(=O)[C@@H]5CSC[C@@H](NC(=O)/C(=C/C)NC(=O)[C@@H](N)[C@@H](C)CC)C(=O)N[C@@H]([C@@H](C)CC)C(=O)NC(=C)C(=O)N[C@@H](CC(C)C)C(=O)N5)C(=O)N5CCC[C@H]5C(=O)NCC(=O)N4)C(=O)NCC(=O)N[C@@H](C)C(=O)N[C@@H](CC(C)C)C(=O)N[C@@H](CCSC)C(=O)NCC(=O)N3)[C@H](C)SC[C@H](NC2=O)C(=O)N[C@@H](CC(N)=O)C(=O)N1)[C@@H](C)CC)C(C)C)C(=O)N[C@@H](CCCCN)C(=O)O [NisinZ, reference compound]
- MIC (Sa3323; Sa3323 (S. aureus)): 6.25 µg/mL (≈ 1.88 µM)
- MIC (Sa 3242; Sa 3242 (S. aureus)): 3.1 µg/mL (≈ 0.931 µM)
- MIC (SH 4016; SH 4016 (S. haemolyticus)): 1.6 to 3.1 µg/mL
- MIC (SH 4015; SH 4015 (S. haemolyticus)): 1.6 to 3.1 µg/mL
- MIC (Sa 3328; Sa 3328 (S. aureus)): 0.8 µg/mL (≈ 0.24 µM)
- MIC (Sa3324; Sa3324 (S. aureus)): 1.6 µg/mL (≈ 0.48 µM)
- MIC (Sa ATCC 33591; Sa ATCC 33591 (S. aureus)): 0.8 µg/mL (≈ 0.24 µM)
- MIC (SP 4012; SP 4012 (S. pseudointermedius)): 0.4 µg/mL (≈ 0.12 µM)
- MIC (SP 4014; SP 4014 (S. pseudointermedius)): 0.4 µg/mL (≈ 0.12 µM)
- MIC (SP 4013; SP 4013 (S. pseudointermedius)): 0.4 µg/mL (≈ 0.12 µM)

Molecule: garvicin ML
- sensitivity of EntEJ97/EntK1 resistant mutants to non-related bacteriocin [1]: as sensitive as the WT strains

Molecule: MKFKFNPTGTIVKKLTQYEINWYKQQYGRYPWERPVA [K1-EJ hybrid]
- MIC (KAVA; KAVA): >50 µg/mL
- MIC (Sa3323): 3.2 to 6.25 µg/mL
- MIC (Sa 3242): 3.1 µg/mL
- MIC (SH 4016): 0.8 to 1.6 µg/mL
- MIC (SH 4015): 0.8 µg/mL
- MIC (Sa 3328): 3.1 µg/mL
- MIC (Sa3324): 6.25 µg/mL
- MIC (Sa ATCC 33591; ATCC 33591): >50 µg/mL
- MIC (SP 4012): 25 µg/mL
- MIC (SP 4014): 12.5 µg/mL
- MIC (SP 4013): 12.5 µg/mL
- MIC (E. faecium (2); E. faecium (2), Table 6B): <0.05 to 0.4 µg/mL
- MIC (Listeria spp. (3)): 6.25 to 25 µg/mL
- MIC (E. faecalis (2)): 1.6 to 3.1 µg/mL
- MIC (E. hirae (4)): 0.1 to 0.4 µg/mL
- MIC (S. pseudointermedius (3)): 12.5 to 25 µg/mL

Molecule: C/C=C(\NC(=O)c1csc(-c2csc(-c3ccc4c(n3)-c3csc(n3)[C@H]([C@@H](C)O)NC(=O)c3csc(n3)[C@H](C(C)C)NC(=O)c3csc(n3)/C(=C/C)NC(=O)[C@H]([C@@H](C)O)NC(=O)c3csc-4n3)n2)n1)C(=O)NC[C@@H](C)O [micrococcinP1, Micrococcin P1, reference compound]
- MIC (KAVA): > 12.5 µg/mL
- MIC (Sa3323; Staphylococcus aureus): 0.1 µg/mL (≈ 0.0874 µM)
- MIC (Sa 3242; Staphylococcus aureus, 3242): 0.2 µg/mL (≈ 0.175 µM)
- MIC (SH 4016; Staphylococcus haemolyticus): 1.6 µg/mL (≈ 1.4 µM)
- MIC (SH 4015; Staphylococcus haemolyticus): 1.6 µg/mL (≈ 1.4 µM)
- MIC (Sa 3328; Staphylococcus aureus, 3328): 0.1 µg/mL (≈ 0.0874 µM)
- MIC (Sa3324; Staphylococcus aureus): 0.1 µg/mL (≈ 0.0874 µM)
- MIC (Sa ATCC 33591; Staphylococcus aureus, ATCC33591): 0.4 µg/mL (≈ 0.35 µM)
- MIC (SP 4012): 0.4 µg/mL (≈ 0.35 µM)
- MIC (SP 4014): 0.8 µg/mL (≈ 0.699 µM)
- MIC (SP 4013): 0.4 µg/mL (≈ 0.35 µM)

Molecule: MLAKIKAMIKKFPNPYTLAAKLTTYEIAWFKNKHGYYPWEIPRC [EJ-K1 hybrid]
- MIC (KAVA; KAVA): >50 µg/mL
- MIC (Sa3323): 3.2 to 6.25 µg/mL
- MIC (Sa 3242): 12.5 µg/mL
- MIC (SH 4016): 50 µg/mL
- MIC (SH 4015): 50 µg/mL
- MIC (Sa 3328): 6.25 µg/mL
- MIC (Sa3324): 12.5 µg/mL
- MIC (Sa ATCC 33591; ATCC 33591): >50 µg/mL
- MIC (SP 4012): >50 µg/mL
- MIC (SP 4014): >50 µg/mL
- MIC (SP 4013): >50 µg/mL
- MIC (E. faecium (2); 2): 3.15 µg/mL
- MIC (E. faecalis (2)): 25 to 50 µg/mL
- MIC (E. hirae (4)): 3.2 to 6.3 µg/mL
- MIC (S. pseudointermedius (3)): 50 µg/mL

B1: GarKS: Garvicin KS is made up of 3 peptides (SEQ ID NO:43, 44, 45) (peptide, listed as Lactococcus garvieae)
chain 1: MGAIIKAGAKIVGKGVLGGGASWLGWNVGEKIWK
chain 2: MGAIIKAGAKIIGKGLLGGAAGGATYGGLKKIFG
chain 3: MGAIIKAGAKIVGKGALTGGGVWLAEKLFGGK
- MIC (KAVA; KAVA): 6.25 to 12.5 µg/mL
- MIC (Sa3323; Sa3323 (S. aureus)): 6.25 µg/mL
- MIC (Sa 3242; Sa 3242 (S. aureus)): 3.1 µg/mL
- MIC (SH 4016; SH 4016 (S. haemolyticus)): 6.25 µg/mL
- MIC (SH 4015; SH 4015 (S. haemolyticus)): 6.25 µg/mL
- MIC (Sa 3328; Sa 3328 (S. aureus)): 3.1 µg/mL
- MIC (Sa3324; Sa3324 (S. aureus)): 6.25 µg/mL
- MIC (Sa ATCC 33591; Sa ATCC 33591 (S. aureus)): 12.5 µg/mL
- MIC (SP 4012; SP 4012 (S. pseudointermedius)): 6.25 µg/mL
- MIC (SP 4014; SP 4014 (S. pseudointermedius)): 6.25 µg/mL
- MIC (SP 4013; SP 4013 (S. pseudointermedius)): 6.25 µg/mL
